Molecular target: full-length human PIKFYVE (Homo sapiens (Human), UniProt Q9Y2I7, L932S/Q1183K/Q995L/S1033A/S696N/T998S)
Assay: PIKfyve biochemical assay (ADP-Glo Kinase assay, Carna Biosciences)
Details: ADP-Glo, GST-PIKFYVE, 10 μM to 3 nM; read-out: hPIKfyve IC50
Method: (§1) PIKfyve Biochemical Assay. The biochemical PIKFyve inhibition assays were run by Carna Biosciences according to proprietary methodology based on the Promega ADP-Glo™ Kinase assay. […] GST-PIKFYVE was purified by using glutathione sepharose chromatography and used in an ADP-Glo™ Kinase assay (Promega). Reactions were set up by adding the test compound solution, substrate solution, ATP solution and kinase solution, each at 4× final concentrations. Reactions were prepared with assay buffer (50 mM MOPS, 1 mM DTT, pH7.2), mixed, and incubated in black 384 well polystyrene plates for 1 hour at room temperature. ADPGlo™ reagent was then added for 40 minutes, followed by kinase detection reagent for an additional 40 minutes. The kinase activity was evaluated by detecting relative light units on a luminescence plate reader. Samples were run in duplicate from 10 μM to 3 nM. […] IC50 values were calculated from concentration vs % inhibition curves by fitting to a four-parameter logistic curve.
as §1, with “The” for “PIKfyve Biochemical Assay. The”, “ADP-Glo™” for “ADPGlo™”, “uM” for “μM”, “curve. […]” for “curve.”

full-length human PIKFYVE, sequence (Q9Y2I7 whole entry S696N/L932S/Q995L/T998S/S1033A/Q1183K): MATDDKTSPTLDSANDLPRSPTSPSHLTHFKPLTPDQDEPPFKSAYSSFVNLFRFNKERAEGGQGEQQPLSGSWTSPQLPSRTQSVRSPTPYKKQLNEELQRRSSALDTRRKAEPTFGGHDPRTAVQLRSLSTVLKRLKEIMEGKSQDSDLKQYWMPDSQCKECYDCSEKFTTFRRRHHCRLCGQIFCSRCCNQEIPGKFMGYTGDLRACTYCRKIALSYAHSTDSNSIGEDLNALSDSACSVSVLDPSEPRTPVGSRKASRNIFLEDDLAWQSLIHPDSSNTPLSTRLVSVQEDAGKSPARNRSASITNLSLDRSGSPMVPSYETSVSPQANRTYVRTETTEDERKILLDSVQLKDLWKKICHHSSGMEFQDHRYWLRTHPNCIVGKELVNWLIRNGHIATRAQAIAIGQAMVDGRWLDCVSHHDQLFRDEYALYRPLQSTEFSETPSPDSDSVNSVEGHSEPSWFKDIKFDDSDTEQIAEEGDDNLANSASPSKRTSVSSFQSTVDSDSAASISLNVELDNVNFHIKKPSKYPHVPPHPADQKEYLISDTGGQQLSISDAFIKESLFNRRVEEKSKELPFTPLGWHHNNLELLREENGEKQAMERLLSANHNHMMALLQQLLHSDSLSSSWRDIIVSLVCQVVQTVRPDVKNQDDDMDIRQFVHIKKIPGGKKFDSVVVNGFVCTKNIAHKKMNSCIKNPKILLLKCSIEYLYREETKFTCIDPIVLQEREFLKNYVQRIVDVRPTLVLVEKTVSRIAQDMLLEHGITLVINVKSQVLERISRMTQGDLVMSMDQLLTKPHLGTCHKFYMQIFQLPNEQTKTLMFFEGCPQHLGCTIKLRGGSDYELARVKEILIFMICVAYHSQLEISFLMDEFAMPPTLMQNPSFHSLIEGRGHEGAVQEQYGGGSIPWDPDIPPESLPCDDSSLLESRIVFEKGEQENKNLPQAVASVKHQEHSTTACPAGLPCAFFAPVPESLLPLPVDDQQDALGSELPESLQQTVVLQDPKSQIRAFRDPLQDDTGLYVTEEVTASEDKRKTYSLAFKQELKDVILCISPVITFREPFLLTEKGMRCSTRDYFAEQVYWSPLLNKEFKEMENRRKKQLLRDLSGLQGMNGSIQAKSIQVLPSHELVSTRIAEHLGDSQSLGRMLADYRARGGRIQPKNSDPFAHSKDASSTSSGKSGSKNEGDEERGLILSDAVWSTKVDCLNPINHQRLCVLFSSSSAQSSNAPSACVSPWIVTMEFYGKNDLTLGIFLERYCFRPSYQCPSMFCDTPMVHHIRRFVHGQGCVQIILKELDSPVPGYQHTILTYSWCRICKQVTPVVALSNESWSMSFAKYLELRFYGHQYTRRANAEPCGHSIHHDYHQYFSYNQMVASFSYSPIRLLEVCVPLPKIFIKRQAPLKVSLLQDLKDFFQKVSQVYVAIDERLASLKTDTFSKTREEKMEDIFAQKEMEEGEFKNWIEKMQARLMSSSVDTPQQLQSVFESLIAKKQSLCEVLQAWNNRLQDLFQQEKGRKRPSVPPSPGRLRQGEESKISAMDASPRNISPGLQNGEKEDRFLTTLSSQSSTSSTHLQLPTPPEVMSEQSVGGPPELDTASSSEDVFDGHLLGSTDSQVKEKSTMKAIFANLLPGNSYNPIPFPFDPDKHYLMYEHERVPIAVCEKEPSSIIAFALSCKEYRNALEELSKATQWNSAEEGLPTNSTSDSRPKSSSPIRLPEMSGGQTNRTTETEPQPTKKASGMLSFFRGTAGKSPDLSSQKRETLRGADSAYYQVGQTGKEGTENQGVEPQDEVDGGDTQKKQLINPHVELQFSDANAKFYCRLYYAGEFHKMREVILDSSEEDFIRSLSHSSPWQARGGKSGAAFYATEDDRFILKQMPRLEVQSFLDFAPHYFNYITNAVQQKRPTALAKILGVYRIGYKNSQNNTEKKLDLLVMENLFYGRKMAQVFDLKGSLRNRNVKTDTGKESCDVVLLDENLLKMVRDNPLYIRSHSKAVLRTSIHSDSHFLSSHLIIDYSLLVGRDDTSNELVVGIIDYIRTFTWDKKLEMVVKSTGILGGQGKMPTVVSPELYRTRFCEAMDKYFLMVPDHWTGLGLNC

IC50 | SMILES
10 to 100 nM | Cn1c(-c2ccncc2)nc2c(N3CCOCC3)nc(-n3ccc(C4CCNCC4)n3)nc21 [Compound 21]
10 to 100 nM | Cn1c(-c2ccncc2)nc2c(N3CCOCC3)nc(-n3ccc(CC4CN(C(=O)OC(C)(C)C)C4)n3)nc21 [Compound 84, tert-butyl 3-((1-(9-methyl-6-morpholino-8-(pyridin-4-yl)-9H-purin-2-yl)-1H-pyrazol-3-yl)methyl)azetidine-1-carboxylate]
100 to 1000 nM | CN1CCCC(c2nc(-c3nc(N4CCOCC4)c4nc(-c5ccncc5)n(C)c4n3)no2)C1 (stereo not shown) [Compound 30]
1000 to 10000 nM | Cn1c(-c2ccncc2)nc2c(N3CCOCC3)nc(-n3ccc(C4CCOC4)n3)nc21 (stereo not shown) [Compound 96, 4-(9-methyl-8-(pyridin-4-yl)-2-(3-(tetrahydrofuran-3-yl)-1H-pyrazol-1-yl)-9H-purin-6-yl)morpholine]
10 to 100 nM | c1ccc(-n2ccc(-c3nc(N4CCOCC4)c4cc(-c5ccncc5)sc4n3)n2)cc1 [Compound 124]
1000 to 10000 nM | CN1CCCC(c2ccn(-c3nc(N4CCOCC4)c4nc(C5CCOCC5)n(C)c4n3)n2)C1 (stereo not shown) [Compound 15]
10 to 100 nM | Cn1c(C2CNC2)nc2c(N3CCOCC3)nc(-n3ccc(-c4ccccc4)n3)nc21 [Compound 83, 4-(8-(azetidin-3-yl)-9-methyl-2-(3-phenyl-1H-pyrazol-1-yl)-9H-purin-6-yl)morpholine]
10 to 100 nM | Cn1c(-c2ccncc2)nc2c(N3CCOCC3)nc(-n3cc(-c4ccncc4)cn3)nc21 [Compound 93, 4-(9-methyl-8-(pyridin-4-yl)-2-(4-(pyridin-4-yl)-1H-pyrazol-1-yl)-9H-purin-6-yl)morpholine]
100 to 1000 nM | Cn1c(C2CCCNC2)nc2c(N3CCOCC3)nc(-n3ccc(-c4ccccc4)n3)nc21 (stereo not shown) [Compound 10]
10 to 100 nM | c1cc(-c2nc3c(N4CCOCC4)nc(-n4ccc(C5CCCNC5)n4)nc3[nH]2)ccn1 (stereo not shown) [Compound 22]
100 to 1000 nM | Cn1c(C2CCNCC2)nc2c(N3CCOCC3)nc(-n3ccc(-c4ccccc4)n3)nc21 [Compound 11]
< 10 nM | CN1CC(c2ccn(-c3nc(N4CCOCC4)c4nc(-c5ccncc5)n(C)c4n3)n2)CCC1=O (stereo not shown) [Compound 88, 1-methyl-5-(1-(9-methyl-6-morpholino-8-(pyridin-4-yl)-9H-purin-2-yl)-1H-pyrazol-3-yl)piperidin-2-one]
100 to 1000 nM | c1ccc(-c2nccc(-c3nc(N4CCOCC4)c4sc(-c5ccncc5)nc4n3)n2)cc1 [Compound 125]
100 to 1000 nM | Cn1c(-c2ccncc2)nc2c(N3CCOCC3)nc(-n3ccc(C4CCCNC4)n3)nc21 (stereo not shown) [Compound 17]
10 to 100 nM | Cn1c(-c2ccncc2)nc2c(N3CCOCC3)nc(-n3ccc(-c4ccncc4)n3)nc21 [Compound 27]
10 to 100 nM | Cn1c(-c2ccncc2)nc2c(N3CCOCC3)nc(NC3CCCC3)nc21 [Compound 102, N-cyclopentyl-9-methyl-6-morpholino-8-(pyridin-4-yl)-9H-purin-2-amine]
10 to 100 nM | Cn1c(-c2ccncc2)nc2c(N3CCOCC3)nc(-n3ccc(-c4cncnc4)n3)nc21 [Compound 82, 4-(9-methyl-8-(pyridin-4-yl)-2-(3-(pyrimidin-5-yl)-1H-pyrazol-1-yl)-9H-purin-6-yl)morpholine]
10 to 100 nM | Cn1c(C2CCNC2)nc2c(N3CCOCC3)nc(-n3ccc(-c4ccccc4)n3)nc21 (stereo not shown) [Compound 90, 4-(9-Methyl-2-(3-phenyl-1H-pyrazol-1-yl)-8-(pyrrolidin-3-yl)-9H-purin-6-yl)morpholine]
10 to 100 nM | Cn1c(-c2ccncc2)nc2c(N3CCOCC3)nc(-c3ccnc(C4CC4)n3)nc21 [Compound 97, 4-(2-(2-cyclopropylpyrimidin-4-yl)-9-methyl-8-(pyridin-4-yl)-9H-purin-6-yl)morpholine]

IC50 | SMILES
1000 to 10000 nM | Cn1c(C2=CCOCC2)nc2c(N3CCOCC3)nc(-n3ccc(-c4cccc(C#N)c4)n3)nc21 [Compound 36, 3-{1-[8-(3,6-dihydro-2H-pyran-4-yl)-9-methyl-6-(morpholin-4-yl)-9H-purin-2-yl]-1H-pyrazol-3-yl}benzonitrile]
100 to 1000 nM | Cn1c(-c2ccncc2)nc2c(N3CCOCC3)nc(-c3ccnc(C4CCCNC4)n3)nc21 (stereo not shown) [Compound 95, 4-(9-methyl-2-(2-(piperidin-3-yl)pyrimidin-4-yl)-8-(pyridin-4-yl)-9H-purin-6-yl)morpholine]
10 to 100 nM | Cn1c(-c2ccncc2)nc2c(N3CCOCC3)nc(-c3ccnc(C(F)(F)F)n3)nc21 [Compound 94, 4-(9-methyl-8-(pyridin-4-yl)-2-(2-(trifluoromethyl)pyrimidin-4-yl)-9H-purin-6-yl)morpholine]
100 to 1000 nM | Cn1c(-c2ccncc2)nc2c(N3CCOCC3)nc(-c3ccn(C4CCCNC4)n3)nc21 (stereo not shown) [Compound 41]
100 to 1000 nM | Cn1c(-c2ccncc2)nc2c(N3CCOCC3)nc(-c3noc(C4CCCNC4)n3)nc21 (stereo not shown) [Compound 31]
1000 to 10000 nM | FC(F)n1c(-c2ccncc2)nc2c(N3CCOCC3)nc(-c3ccnc(-c4ccccc4)n3)nc21 [Compound 105, 4-(9-(difluoromethyl)-2-(2-phenylpyrimidin-4-yl)-8-(pyridin-4-yl)-9H-purin-6-yl)morpholine]
100 to 1000 nM | Cn1c(-c2ccncc2)nc2c(N3CCOCC3)nc(-n3ccc(C4CCOCC4)n3)nc21 [Compound 25]
100 to 1000 nM | Cn1ccc(-c2nc(N3CCOCC3)c3nc(-c4ccncc4)n(C)c3n2)n1 [Compound 48]
10 to 100 nM | Cn1c(-c2ccncc2)nc2c(N3CCOCC3)nc(N3CCC(F)(F)C3)nc21 [Compound 101, 4-(2-(3,3-difluoropyrrolidin-1-yl)-9-methyl-8-(pyridin-4-yl)-9H-purin-6-yl)morpholine]
100 to 1000 nM | Cn1c(-c2ccncc2)nc2c(N3CCOCC3)nc(-n3ccc(CC4CNC4)n3)nc21 [Compound 80, 4-(2-(3-(azetidin-3-ylmethyl)-1H-pyrazol-1-yl)-9-methyl-8-(pyridin-4-yl)-9H-purin-6-yl)morpholine]
10 to 100 nM | Cn1c(-c2ccncc2)nc2c(N3CCOCC3)nc(-c3ccc4c(c3)OCO4)nc21 [Compound 99, 4-(2-(benzo[d][1,3]dioxol-5-yl)-9-methyl-8-(pyridin-4-yl)-9H-purin-6-yl)morpholine]
100 to 1000 nM | Cn1c(-c2ccncc2)nc2c(N3CCOCC3)nc(-n3nc(C4CCCCC4)[nH]c3=O)nc21 [Compound 50, 3-cyclohexyl-1-[9-methyl-6-(morpholin-4-yl)-8-(pyridin-4-yl)-9H-purin-2-yl]-4,5-dihydro-1H-1,2,4-triazol-5-one]
100 to 1000 nM | CC(C)c1ccn(-c2nc(N3CCOCC3)c3nc(-c4ccncc4)n(C)c3n2)n1 [Compound 23]
1000 to 10000 nM | Cn1c(C2CCOCC2)nc2c(N3CCOCC3)nc(-n3ccc(-c4cncnc4)n3)nc21 [Compound 20]
1000 to 10000 nM | Cn1c(C2CCOCC2)nc2c(N3CCOCC3)nc(-n3ccc(-c4cccc(C#N)c4)n3)nc21 [Compound 39]
100 to 1000 nM | Cn1c(-c2ccncc2)nc2c(N3CCOCC3)nc(-n3ccc(C4CCNC4)n3)nc21 (stereo not shown) [Compound 38]
100 to 1000 nM | Cc1nn(-c2nc(N3CCOCC3)c3nc(-c4ccncc4)n(C)c3n2)c(=O)n1-c1ccccc1 [Compound 24]
< 10 nM | CN1Cc2ccc(-c3nc(N4CCOCC4)c4nc(-c5ccncc5)n(C)c4n3)cc2C1=O [Compound 107, 2-methyl-6-(9-methyl-6-morpholino-8-(pyridin-4-yl)-9H-purin-2-yl)isoindolin-1-one]
